# Biological target: T1, histamine H3 receptors (Homo sapiens, UniProt Q9Y5N1)
# T1 construct: expressed in transfected cells; host or cells: CHO K1 cells carrying pSwitch, transfected with pGeneH3, induced with mifepristone; clone 3H3; membrane preparation
# Assay: Histamine H3 functional antagonist assay ([35S]-GTPγS SPA on membranes from H3 cells)
# Format: biochemical
# Settings: hydrochloride salts tested; H3 functional antagonist assay using membrane prepared from cultured H3 cells; averages of a number of experiments; read-out: functional pKi (fpKi) (converted)
# Description: A membrane preparation containing histamine H3 receptors may be prepared in accordance with the following procedures:
# (i) Generation of Histamine H3 Cell Line
# DNA encoding the human histamine H3 gene (Huvar, A. et al. (1999) Mol. Pharmacol. 55(6), 1101-1107) was cloned into a holding vector, pCDNA3.1 TOPO (InVitrogen) and its cDNA was isolated from this vector by restriction digestion of plasmid DNA with the enzymes BamHI and Not-1 and ligated into the inducible expression vector pGene (InVitrogen) digested with the same enzymes. The GeneSwitch™ system (a system where in transgene expression is switched off in the absence of an inducer and switched on in the presence of an inducer) was performed as described in U.S. Pat. Nos. 5,364,791; 5,874,534; and 5,935,934. Ligated DNA was transformed into competent DH5α E. coli host bacterial cells and plated onto Luria Broth (LB) agar containing Zeocin™ (an antibiotic which allows the selection of cells expressing the sh ble gene which is present on pGene and pSwitch) at 50 μg ml^−1. Colonies containing the re-ligated plasmid were identified by restriction analysis. DNA for transfection into mammalian cells was prepared from 250 ml cultures of the host bacterium containing the pGeneH3 plasmid and isolated using a DNA preparation kit (Qiagen Midi-Prep) as per manufacturers guidelines (Qiagen).
# CHO K1 cells previously transfected with the pSwitch regulatory plasmid (InVitrogen) were seeded at 2×10e6 cells per T75 flask in Complete Medium, containing Hams F12 (GIBCOBRL, Life Technologies) medium supplemented with 10% v/v dialysed foetal bovine serum, L-glutamine, and hygromycin (100 μg ml^−1), 24 hours prior to use. Plasmid DNA was transfected into the cells using Lipofectamine plus according to the manufacturers guidelines (InVitrogen). 48 hours post transfection cells were placed into complete medium supplemented with 500 μg ml^−1 Zeocin™.
# 10-14 days post selection 10 nM Mifepristone (InVitrogen), was added to the culture medium to induce the expression of the receptor. 18 hours post induction cells were detached from the flask using ethylenediamine tetra-acetic acid (EDTA; 1:5000; InVitrogen), following several washes with phosphate buffered saline pH 7.4 and resuspended in Sorting Medium containing Minimum Essential Medium (MEM), without phenol red, and supplemented with Earles salts and 3% Foetal Clone II (Hyclone). Approximately 1×10e7 cells were examined for receptor expression by staining with a rabbit polyclonal antibody, 4a, raised against the N-terminal domain of the histamine H3 receptor, incubated on ice for 60 minutes, followed by two washes in sorting medium. Receptor bound antibody was detected by incubation of the cells for 60 minutes on ice with a goat anti rabbit antibody, conjugated with Alexa 488 fluorescence marker (Molecular Probes). Following two further washes with Sorting Medium, cells were filtered through a 50 μm Filcon™ (BD Biosciences) and then analysed on a FACS Vantage SE Flow Cytometer fitted with an Automatic Cell Deposition Unit. Control cells were non-induced cells treated in a similar manner. Positively stained cells were sorted as single cells into 96-well plates, containing Complete Medium containing 500 μg ml^−1 Zeocin™ and allowed to expand before reanalysis for receptor expression via antibody and ligand binding studies. One clone, 3H3, was selected for membrane preparation.
# (ii) Membrane Preparation from Cultured Cells
# All steps of the protocol are carried out at 4° C. and with pre-cooled reagents. The cell pellet is resuspended in 10 volumes of homogenisation buffer (50 mM N-2-hydroxyethylpiperazine-N′-2-ethanesulfonic acid (HEPES), 1 mM ethylenediamine tetra-acetic acid (EDTA), pH 7.4 with KOH, supplemented with 10e-6M leupeptin (acetyl-leucyl-leucyl-arginal; Sigma L2884), 25 μg/ml bacitracin (Sigma B0125), 1 mM phenylmethylsulfonyl fluoride (PMSF) and 2×10e-6M pepstain A (Sigma)). […]
# T1 sequence (Q9Y5N1 whole entry): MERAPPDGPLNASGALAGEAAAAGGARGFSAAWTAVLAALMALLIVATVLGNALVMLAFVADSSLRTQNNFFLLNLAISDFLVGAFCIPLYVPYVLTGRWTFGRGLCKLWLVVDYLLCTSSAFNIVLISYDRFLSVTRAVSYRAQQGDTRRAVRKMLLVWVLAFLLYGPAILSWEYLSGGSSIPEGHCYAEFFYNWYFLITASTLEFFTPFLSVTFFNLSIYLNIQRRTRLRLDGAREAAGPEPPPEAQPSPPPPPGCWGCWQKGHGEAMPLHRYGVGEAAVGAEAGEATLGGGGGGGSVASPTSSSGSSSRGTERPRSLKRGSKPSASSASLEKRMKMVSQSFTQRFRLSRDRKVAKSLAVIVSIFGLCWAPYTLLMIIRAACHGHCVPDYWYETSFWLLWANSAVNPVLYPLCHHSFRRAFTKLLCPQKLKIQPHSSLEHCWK
row,Ki,SMILES
1,< 1.26 nM,"Cc1cn(C)nc1C(=O)N1CCC(c2nc3c(s2)CCN(C2CCC2)CC3)CC1 [Example E85, 6-Cyclobutyl-2-{1-[(1,4-dimethyl-1H-pyrazol-3-yl)carbonyl]-4-piperidinyl}-5,6,7,8-tetrahydro-4H-[1,3]thiazolo[4,5-d]azepine]"
2,< 1.26 nM,"Cc1cc(C(=O)N2CCC(c3nc4c(s3)CCN(C3CCC3)CC4)CC2)nn1C [Example E88, 6-Cyclobutyl-2-{1-[(1,5-dimethyl-1H-pyrazol-3-yl)carbonyl]-4-piperidinyl}-5,6,7,8-tetrahydro-4H-[1,3]thiazolo[4,5-d]azepine]"
3,< 1.26 nM,"O=C(c1ccccn1)N1CCC(c2nc3c(s2)CCN(C2CCC2)CC3)CC1 [Example E90, 6-Cyclobutyl-2-[1-(2-pyridinylcarbonyl)-4-piperidinyl]-5,6,7,8-tetrahydro-4H-[1,3]thiazolo[4,5-d]azepine]"
4,< 1.26 nM,"Cc1cncc(C(=O)N2CCC(c3nc4c(s3)CCN(C3CCC3)CC4)CC2)n1 [Example E92, 6-Cyclobutyl-2-{1-[(6-methyl-2-pyrazinyl)carbonyl]-4-piperidinyl}-5,6,7,8-tetrahydro-4H-[1,3]thiazolo[4,5-d]azepine]"
5,< 1.26 nM,"Cc1cc(C(=O)N2CCC(c3nc4c(s3)CCN(C3CCC3)CC4)CC2)ccn1 [Example E93, 6-Cyclobutyl-2-{1-[(2-methyl-4-pyridinyl)carbonyl]-4-piperidinyl}-5,6,7,8-tetrahydro-4H-[1,3]thiazolo[4,5-d]azepine]"
6,< 1.26 nM,"Cc1nccc(C(=O)N2CCC(c3nc4c(s3)CCN(C3CCC3)CC4)CC2)n1 [Example E95, 6-Cyclobutyl-2-{1-[(2-methyl-4-pyrimidinyl)carbonyl]-4-piperidinyl}-5,6,7,8-tetrahydro-4H-[1,3]thiazolo[4,5-d]azepine]"
7,< 1.26 nM,"O=S1(=O)CCCN1c1ccc(-c2nc3c(s2)CCN(C2CCC2)CC3)cc1 [Example E99, 6-Cyclobutyl-2-[4-(1,1-dioxido-2-isothiazolidinyl)phenyl]-5,6,7,8-tetrahydro-4H-[1,3]thiazolo[4,5-d]azepine]"
8,< 1.26 nM,"NC(=O)c1ccc(-c2nc3c(s2)CCN(C2CCC2)CC3)cn1 [Example E100, 5-(6-Cyclobutyl-5,6,7,8-tetrahydro-4H-[1,3]thiazolo[4,5-d]azepin-2-yl)-2-pyridinecarboxamide]"
9,< 1.26 nM,"O=C1NCCN1c1ccc(-c2nc3c(s2)CCN(C2CCC2)CC3)cn1 [Example E103, 1-[5-(6-Cyclobutyl-5,6,7,8-tetrahydro-4H-[1,3]thiazolo[4,5-d]azepin-2-yl)-2-pyridinyl]-2-imidazolidinone]"
10,< 1.26 nM,"N#Cc1ccc(C(=O)N2CCC(c3nc4c(s3)CCN(C3CCC3)CC4)C2)cc1 (stereo not drawn) [Example E105, 4-{[3-(6-Cyclobutyl-5,6,7,8-tetrahydro-4H-[1,3]thiazolo[4,5-d]azepin-2-yl)-1-pyrrolidinyl]carbonyl}benzonitrile]"
11,< 31.6 nM,"Cc1cccc(C(=O)N2CCC(c3nc4c(s3)CCN(C3CCC3)CC4)C2)n1 (stereo not drawn) [Example E106, 6-Cyclobutyl-2-{1-[(6-methyl-2-pyridinyl)carbonyl]-3-pyrrolidinyl}-5,6,7,8-tetrahydro-4H-[1,3]thiazolo[4,5-d]azepine]"
12,> 7.94 nM,"c1cc(N2CCCC2)ncc1-c1nc2c(s1)CCN(C1CCC1)CC2 [Example E107, 6-Cyclobutyl-2-[6-(1-pyrrolidinyl)-3-pyridinyl]-5,6,7,8-tetrahydro-4H-[1,3]thiazolo[4,5-d]azepine]"
13,< 1.26 nM,"c1cc(N2CCOCC2)ncc1-c1nc2c(s1)CCN(C1CCC1)CC2 [Example E108, 6-Cyclobutyl-2-[6-(4-morpholinyl)-3-pyridinyl]-5,6,7,8-tetrahydro-4H-[1,3]thiazolo[4,5-d]azepine]"
14,< 31.6 nM,"N#Cc1cccc(-c2nc3c(s2)CCN(C2CCC2)CC3)c1 [Example E112, 3-(6-Cyclobutyl-5,6,7,8-tetrahydro-4H-[1,3]thiazolo[4,5-d]azepin-2-yl)benzonitrile]"
15,< 1.26 nM,"CN(C)c1ccc(-c2nc3c(s2)CCN(C2CCC2)CC3)cc1 [Example E116, 4-(6-Cyclobutyl-5,6,7,8-tetrahydro-4H-[1,3]thiazolo[4,5-d]azepin-2-yl)-N,N-dimethylaniline]"

# From patent US20080161289A1, “Fused Thiazole Derivatives Having Affinity for the Histamine H3 Receptor” (Glaxo Group Limited, priority 2005, published 2008)
